Experimental data as given in article PMC6832503, “Synthesis of Novel Nicotinic Ligands with Multimodal Action: Targeting Acetylcholine α4β2, Dopamine and Serotonin Transporters” (Molecules, 2019).
Where a name gives a salt, the structure may show the parent alone. Read-outs that look alike come from different tables or passages of the source.

Key:
α4β2 nAChR [1] = molecular target: T1, α4β2 nAChR (Rattus norvegicus, UniProt P09483+P12390); details: bupropion included as comparative value, not used in the trial; cited from earlier work
T1 construct: the rat complete brain P1 fraction (occupying 2 mg of wet tissue for each assay); from tissue; host or cells: whole rat brain, synaptosome pellet (fraction P1)

h-DAT = molecular target: T2, h-DAT (Homo sapiens, UniProt Q01959); assay: [3H]-WIN 35,428 competitive binding on h-DAT membranes (CHO-K1)
T2 construct: purchased Perkin-Elmer RBHDATM400UA; host or cells: CHO-K1 membranes
Procedure: (§1) To evaluate the affinity (Ki) of our compounds, competitive binding assays in α4β2 nAChR using [^3H]-cytisine as radioligand ([^3H]-Cyt) was measured. Binding experiments were carried out on whole rat brain synaptosomes. To evaluate the affinity on the monoamine transporters SERT and DAT, binding affinity (Ki) was determined using [^3H]-WIN 35,428 ([^3H]-WIN) for h-DAT and [^3H]-paroxetine ([^3H]-parox) for h-SERT as specific radioligands for the corresponding monoamine transporters respectively. Competitive binding studies were carried out on homogenized membranes prepared from the human clonal cell line HEK293 for h-SERT (Perkin Elmer) and CHO-K1 for h-DAT (Perkin Elmer). […].
The cellular background CHO-K1 with 400 μL of h-DAT (Code RBHDATM400UA, Perkin-Elmer, Santiago, Chile) was diluted in 12 Eppendorf tubes, with a storage buffer solution of Tris-HCl 50 mM (pH 7.4), EDTA 0.5 mM, MgCl2 10 mM and 10% sucrose, obtaining a final volume of 260–340 μL stored at −80 °C [46]. Each Eppendorf tube was incubated in 50 mM Tris-HCl buffer solution (pH 7.4), 100 mM NaCl, the drugs under study were using increasing concentrations, with 1 nM of [^3H]-WIN 35,428 (specific activity 82.6 Ci/mmol, Code NET1033025UC, Perkin-Elmer, Santiago, Chile) with a final volume of 250 μL. Non-specific binding was determined using 10 mM methylphenidate.
After 120 min at 4 °C, the incubation was stopped by rapid filtration on a Whatman GF/C filter preabsorbed in 0.5% polyethylenimine (PEI), washed with cold working buffer solution, 3 x 3mL, filtered, and scintillation liquid was added. The radioactivity was measured by liquid scintillation spectrometry (MicroBeta 2450 microplate counter, PerkinElmer, Santiago, Chile). The data were plotted by non-linear regression variable inhibitor-response dose (Prism 5.01, GraphPad, San Diego, CA, USA) to estimate the IC50 and Ki values for the tested compounds using the Cheng-Prusoff equation.

h-SERT = molecular target: T3, h-SERT (Homo sapiens, UniProt P31645); assay: [3H]-paroxetine radioligand binding on h-SERT membranes (HEK293)
T3 construct: purchased Perkin-Elmer RBHSTM400UA; host or cells: HEK293 membranes
Procedure: as §1
The cellular background HEK293 containing 400 μL of h-SERT (Code RBHSTM400UA, Perkin-Elmer, Santiago, Chile) was diluted in 12 Eppendorf tubes, containing a storage buffer solution of Tris-HCl 50 mM (pH 7.4), EDTA 0.5 mM, MgCl2 10 mM and 10% sucrose, obtaining a final volume between 260 and 340 μL, which was finally stored at −80 °C [46].
Each Eppendorf tube was incubated with 50 mM Tris HCl buffer (pH 7.4), 120 mM NaCl, 5 mM KCl and the drugs under study using increasing concentrations, in presence of 2 nM of [^3H]-paroxetine (specific activity 23.1 Ci/mmol, Code NET86925UC, Perkin-Elmer, Santiago, Chile) with a final volume of 250 μL [46]. Non-specific binding was determined using […] fluoxetine. After 30 min at 27 °C, the incubation was stopped by rapid filtration on a Whatman GF/C filter preabsorbed in 0.5% polyethylenimine (PEI), washed with cold working buffer solution, 3 × 3mL, filtered, and scintillation liquid was added. The radioactivity was measured by liquid scintillation spectrometry (MicroBeta 2450 microplate counter, PerkinElmer, Santiago, Chile). The data were represented in a bar graph using 25 μM concentration for both, the compound under study and fluoxetine as the non-specific ligand. Each bar represents the mean ± S.E.M obtained in the experiments carried out in triplicates.

α4β2 nAChR [2] = molecular target: T1, α4β2 nAChR; assay: [3H]-cytisine competitive binding on whole rat brain synaptosomes
Procedure: as §1
Preparation of the synaptosome fraction: the rats were sacrificed by decapitation, and their brain removed without dissecting. Brain tissue was homogenized in 40 volumes using a buffer of 0.32 M sucrose at pH 7.4, containing 1 mM EDTA, 0.1 mM PMSF, and 0.01% of cold and freshly prepared NaN3, through a glass homogenizer and teflon stem. The homogenate was distributed in Eppendorf tubes and centrifuged at 20,000 g for 30 min at 4 °C to produce a synaptosome pellet (fraction P1) which is used for the binding assay. This fraction P1 was subsequently stored at −80 °C.
Binding assay of [^3H]-cytisine in α4β2 nAChR cells: the rat complete brain P1 fraction (occupying 2 mg of wet tissue for each assay) was incubated in 2500 μL of 20 mM HEPES buffer solution at pH 7.4 containing 118 mm NaCl, 4.8 mm KCl, 2.5 mm CaCl2, 200 mm Tris, 0.1 mm PMSF and 0.01% NaN3 with or without the different drugs under study at different concentrations, in the presence of 1 nM of [^3H]-cytisine (specific activity 35.8 Ci/mmol, Code NET1054025UC, Perkin-Elmer, Santiago, Chile) in a final volume of 250 μL. Non-specific binding was determined using 2.5 mM of cytisine. Incubation was performed for 30 min at room temperature and then for 60 min at 4 °C. Incubation was stopped by rapid filtration in Whatman GF/C filter preabsorbed in 0.5% polyethylenimine, which were washed with cold and fresh working buffer 7 times, then dried, and adding scintillation liquid, left for the whole night in Eppendorf tubes in order to measure later the radioactivity by liquid scintillation spectrometry (MicroBeta 2450 microplate counter, PerkinElmer, Santiago, Chile). The data were plotted by non-linear regression variable inhibitor-response dose (Prism 5.01, GraphPad, San Diego, CA, USA) to obtain the IC50 and Ki values of the tested compounds using the Cheng-Prusoff equation.

[3] = 25 μM compound, 2 nM [3H]-paroxetine, HEK293 h-SERT membranes, […]

Compound	melting point	also measured
CN1CCC[C@H]1COC(=O)Cc1ccc(Cl)cc1Cl (as salt: hydrochloride)	179.1 to 180.5 °C	–
CN1CCC[C@H]1COC(=O)Cc1ccc(Cl)c(Cl)c1 (as salt: hydrochloride)	183.5 to 184.8 °C	–
CN1CCC[C@H]1COC(=O)c1cccc(Cl)c1 (as salt: hydrochloride) [Compound 3, (S)-(1-Methyl-2-pyrrolidinyl)methyl 3-chlorobenzoate]	120.5 to 121.9 °C	–
CN1CCC[C@H]1COC(=O)c1cccc(Br)c1 (as salt: hydrochloride) [Compound 4, (S)-(1-Methyl-2-pyrrolidinyl)methyl 3-bromobenzoate]	99 to 101.4 °C	–
Cc1ccccc1C(=O)OC[C@@H]1CCCN1C (as salt: hydrochloride) [Compound 5, (S)-(1-Methyl-2-pyrrolidinyl)methyl 2-methylbenzoate]	130.5 to 131.6 °C	–
CN1CCC[C@H]1COC(=O)c1ccc2ccccc2c1 (as salt: hydrochloride) [Compound 18, (S)-(1-Methyl-2-pyrrolidinyl)methyl 2-naphthoate]	125.5 to 127.1 °C	–
CN1CCCC1CCOC(=O)c1ccccc1 (racemic) (as salt: hydrochloride) [Compound 7, (±)-2-(1-Methyl-2-pyrrolidinyl)ethyl benzoate]	88.6 to 89.1 °C	–
CN1CCCC1CCOC(=O)c1cccc(F)c1 (racemic) (as salt: hydrochloride) [Compound 8, (±)-2-(1-Methyl-2-pyrrolidinyl)ethyl 3-fluorobenzoate]	106.8 to 107.5 °C	–
CN1CCCC1CCOC(=O)c1cccc(Cl)c1 (racemic) (as salt: hydrochloride) [Compound 9, (±)-2-(1-Methyl-2-pyrrolidinyl)ethyl 3-chlorobenzoate]	144.7 to 146.2 °C	–
CN1CCCC1CCOC(=O)Cc1ccccc1 (racemic) (as salt: hydrochloride) [Compound 16, (±)-2-(-1-Methyl-2-pyrrolidinyl)ethyl 2-phenylacetate]	86.7 to 87.4 °C	–
CN1CCCC1CCOC(=O)c1ccc2ccccc2c1 (racemic) (as salt: hydrochloride) [Compound 19, (±)-2-(1-Methyl-2-pyrrolidinyl)ethyl 2-naphthoate]	155.6 to 157.4 °C	–
CN1CCCC1CCOC(=O)C(c1ccccc1)c1ccccc1 (racemic) (as salt: hydrochloride) [Compound 21, (±)-2-(-1-Methyl-2-pyrrolidinyl)ethyl 2,2-diphenylacetate]	115.3 to 117.2 °C	–
CC(NC(C)(C)C)C(=O)c1cccc(Cl)c1 (centres unmarked) [Bupropion]	–	Ki (α4β2 nAChR [1]): 10 µM
Cc1ccc(C(=O)OC[C@@H]2CCCN2C)cc1 [Compound 6, (S)-(1-Methyl-2-pyrrolidinyl)methyl 4-methylbenzoate]	–	Ki (µM) h-DAT (h-DAT): did not display affinity; affinity for h-SERT (displacement of [3H]-paroxetine from the central binding site) (h-SERT; result in words): did not display affinity; Ki (µM) α4β2 nAChR (α4β2 nAChR [2]): did not display affinity
CN1CCC[C@H]1COC(=O)c1ccc2ccccc2c1 [Compound 18, (S)-(1-Methyl-2-pyrrolidinyl)methyl 2-naphthoate]	–	Ki (h-DAT): 99.3 ± 1.41 µM; % of Binding [3H]-Paroxetine h-SERT (h-SERT; [3]): increase in the binding; % radioligand binding at 25 µM (h-SERT; [3]): 117 ± 2.3%; Ki (α4β2 nAChR [2]): 0.12 ± 0.037 µM
